Assay results: patent publication US20110313156A1 (BOEHRINGER INGELHEIM INTERNATIONAL GMBH, priority 2008, published 2011)
Where two headings read alike, the source gives them in different places.

Target: T1, His6-PDK1 (aa 52-556) (Homo sapiens, UniProt O15530)
T1 construct: 15 μL His6-PDK1 (aa 52-556) 3.33 ng/well); host or cells: baculovirus-infected insect cells
T1 sequence (O15530 52-556): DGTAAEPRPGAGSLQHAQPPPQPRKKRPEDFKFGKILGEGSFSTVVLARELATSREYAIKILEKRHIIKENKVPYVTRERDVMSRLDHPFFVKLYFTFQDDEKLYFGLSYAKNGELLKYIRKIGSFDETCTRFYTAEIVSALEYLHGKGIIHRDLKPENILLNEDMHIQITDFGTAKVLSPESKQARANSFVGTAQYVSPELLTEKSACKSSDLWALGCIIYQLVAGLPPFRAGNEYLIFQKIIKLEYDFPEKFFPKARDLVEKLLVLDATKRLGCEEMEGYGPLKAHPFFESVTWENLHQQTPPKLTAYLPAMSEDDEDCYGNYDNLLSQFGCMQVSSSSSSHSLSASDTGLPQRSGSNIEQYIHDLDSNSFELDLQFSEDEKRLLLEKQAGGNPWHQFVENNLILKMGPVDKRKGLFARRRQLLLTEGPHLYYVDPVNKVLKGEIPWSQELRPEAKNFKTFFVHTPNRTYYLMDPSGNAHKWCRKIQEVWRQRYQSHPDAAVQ
Experiment: PDK1 kinase assay III (with Tween 20)
Assay type: biochemical
Conditions: read-out: % CTL (residual activity of the enzyme relative to DMSO control)
Procedure: Purified enzyme may be obtained for example from the University of Dundee, Scotland.
Another PDK1 assay was developed which by comparison with PDK1 assay 1 additionally contains Tween 20:
The final concentration of Tween 20 is 0.005%.
The reaction is started by adding the ATP solution and the mixture is incubated for 90 min at ambient temperature; at the start of the reaction the dishes are shaken gently. The reaction is stopped by the addition of 50 μL/well of 500 mM phosphoric acid (H3PO4) and incubated for about 20 min at ambient temperature. […] The measured data are evaluated using Graphpad Prism software.
The % CTL values indicate the residual activity of the enzyme after the addition of the inhibitory compound in the solvent DMSO in relation to the enzyme activity in the solvent DMSO without the addition of a compound (control). The majority of the values were determined using the PDK1 kinase assay III described hereinbefore. The values marked with an asterisk (* or**) were determined using the PDK1 kinase assay II described hereinbefore (one asterisk→incubation for 24 h; two asterisks→incubation for 5 min)

[1] = compound at 10 μM, PDK1 kinase assay III (values without asterisk)

Row | SMILES | remaining activity at 10 µM [1] [%] | remaining activity at 10 µM [%]
1 | Cc1c[nH]c(/C=C2\C(=O)Nc3cc(/C=C/CNC(=O)c4cncn(Cc5ccc(F)c(F)c5)c4=O)ccc32)n1 [I-38, 1-(3,4-difluorobenzyl)-N-[(2E)-3-{(3Z)-3-[(4-methyl-1H-imidazol-2-yl)methylidene]-2-oxo-2,3-dihydro-1H-indol-6-yl}prop-2-en-1-yl]-6-oxo-1,6-dihydropyrimidine-5-carboxamide] | 20.5 | –
2 | O=C1Nc2cc(/C=C/CNC(=O)c3cncn(Cc4ccc(F)c(F)c4)c3=O)ccc2/C1=C/c1c[nH]c(-c2cccnc2)n1 [I-36, 1-(3,4-difluorobenzyl)-6-oxo-N-{(2E)-3-[(3Z)-2-oxo-3-{[2-(pyridin-3-yl)-1H-imidazol-4-yl]methylidene}-2,3-dihydro-1H-indol-6-yl]prop-2-en-1-yl}-1,6-dihydropyrimidine-5-carboxamide] | 25.4 | –
3 | Cc1c(C(=O)NC/C=C/c2ccc3nc(NC(C)C)ncc3c2)c(=O)n(Cc2ccc(F)c(F)c2)n1C [IV-92] | – | 21.6
4 | CN1CCC(N(C)c2ccc(Nc3ncc4c(F)c(/C=C/CNC(=O)c5cncn(Cc6ccc(F)c(F)c6)c5=O)ccc4n3)cc2)CC1 [IV-35, 1-(3,4-difluorobenzyl)-N-{(2E)-3-[5-fluoro-2-({4-[methyl(1-methylpiperidin-4-yl)amino]phenyl}amino)quinazolin-6-yl]prop-2-en-1-yl}-6-oxo-1,6-dihydropyrimidine-5-carboxamide] | 13.9 | –
5 | CN1CCC(N(C)c2ccc(Nc3ncc4cc(/C=C/CNC(=O)c5ccnn(Cc6ccc(F)c(F)c6)c5=O)ccc4n3)cc2)CC1 [IV-52, 2-(3,4-difluorobenzyl)-N-{(2E)-3-[2-({4-[methyl(1-methylpiperidin-4-yl)amino]-phenyl}amino)quinazolin-6-yl]prop-2-en-1-yl}-3-oxo-2,3-dihydropyridazine-4-carboxamide] | 17.2 | –
6 | CN(C)Cc1ccc(Nc2ncc3cc(C#CCNC(=O)c4ccnn(Cc5ccc(F)c(F)c5)c4=O)ccc3n2)cc1 | 13.3 | –
7 | COC(=O)c1ccc(Nc2ncc3cc(/C=C/CNC(=O)c4cncn(Cc5ccc(F)c(F)c5)c4=O)ccc3n2)cc1OC | 38.2 | –
8 | CN(C)CCCNC(=O)c1ccc(Nc2ncc3cc(C#CCNC(=O)c4cncn(Cc5ccc(F)c(F)c5)c4=O)ccc3n2)cc1 | 18.3 | –
9 | Cc1c(C(=O)NC/C=C/c2ccc3nc(Nc4ccc(N(C)C5CCN(C)CC5)cc4)ncc3c2F)c(=O)n(Cc2ccc(F)c(F)c2)n1C [IV-36, 2-(3,4-difluorobenzyl)-N-{(2E)-3-[5-fluoro-2-({4-[methyl(1-methylpiperidin-4-yl)amino]phenyl}amino)quinazolin-6-yl]prop-2-en-1-yl}-1,5-dimethyl-3-oxo-2,3-dihydro-1H-pyrazole-4-carboxamide] | 14.2 | –
10 | COCCCN(C)C(=O)c1ccc(Nc2ncc3cc(C#CCNC(=O)c4c(C)n(C)n(Cc5ccc(F)c(F)c5)c4=O)ccc3n2)cc1 | 16 | –

The next lines start with results.

Row | remaining activity at 10 µM [1] [%] | SMILES | remaining activity at 10 µM [%]
11 | 8.9 | CN(C)Cc1ccc(Nc2ncc3c(F)c(C#CCNC(=O)c4cncn(Cc5ccc(F)c(F)c5)c4=O)ccc3n2)cc1 [III-24, 1-(3,4-difluorobenzyl)-N-{3-[2-({4-[(dimethylamino)methyl]phenyl}amino)-5-fluoroquinazolin-6-yl]prop-2-yn-1-yl}-6-oxo-1,6-dihydropyrimidine-5-carboxamide] | –
12 | 14.9 | CN1CCC(Nc2ccc(Nc3ncc4cc(C#CCNC(=O)c5nccn(Cc6ccc(F)c(F)c6)c5=O)ccc4n3)cc2F)CC1 [III-35, 4-(3,4-difluorobenzyl)-N-{3-[2-({3-fluoro-4-[(1-methylpiperidin-4-yl)amino]-phenyl}amino)quinazolin-6-yl]prop-2-yn-1-yl}-3-oxo-3,4-dihydropyrazine-2-carboxamide] | –
13 | 11.8 | Cc1c(C(=O)NCC#Cc2cc(OC3CCNC3)c3nc(Nc4ccc(N5CCOCC5)cc4)ncc3c2)c(=O)n(Cc2ccc(F)c(F)c2)n1C (centres unmarked) [III-76] | –
14 | 13.3 | Cc1c(C(=O)NCC#Cc2ccc3nc(Nc4ccc(C(=O)N(C)CCCN(C)C)cc4)ncc3c2)c(=O)n(Cc2ccc(F)c(F)c2)n1C [III-90] | –
